Assay [1] deals with T1, DDR1 (Homo sapiens, UniProt Q08345).
T1 construct: purchased Invitrogen
Briefly: Measurement of DDR1 inhibitory activity (LanthaScreen system, in vitro test). As to conditions: GST-DDR1, Kinase tracer 178. In kind it is binding. Here is the method:
Biological Experiment Example 1: Measurement of an DDR1 Inhibitory Activity (In Vitro Test)
An DDR1 enzyme inhibitory activity was measured by using LanthaScreen (registered trademark) system (Invitrogen) based on the attached instruction. The reagents used are shown below.
Assay buffer: 5× Kinase buffer A (Invitrogen) was diluted 5-fold with ddH2O.
1× Kinase Buffer A: 50 mmol/L HEPES pH 7.5, 10 mmol/L MgCl2, 1 mmol/L EGTA, 0.01% Brij-35.
2×DDR1 Solution: a solution containing […] GST-DDR1 (Invitrogen) was prepared by using Assay buffer.
2× Tracer/antibody solution: a solution containing 20 nmol/L Kinase tracer 178 (Invitorgen) and […] Eu-Anti-GST Antibody (Invitorogen) was prepared by using Assay buffer. Test compound solution: a solution containing a test compound of 2-fold concentration with respect to the final concentration was prepared by 50-fold diluting a DMSO solution of test compound of each concentration with the Assay buffer.
• 1 Add 5 μL 2×DDR1 Solution to proxiplate (PerkinElmer) • 2 Add 5 μL test compound solution to proxiplate • 3 Incubate for 15 min at RT • 4 Add 5 μL 2× Tracer/Antibody solution to all well Incubate 1 h at RT • 6 Read LANCE Eu on Envision (PerkinElmer) (Ex: 320 nm/Em 665 nm & 615 nm)
In the low control group, 5 μL Assay buffer was added instead of 5 μL 2×DDR1 Solution and the final 1% DMSO solution was added instead of test compound solution.
In the high control group, the final 1% DMSO solution was added instead of test compound solution.
(§1) The inhibition rate (%) in the test compound group was calculated based on the following mathematical formula.
% inhibition=100−100*(assay value of test compound−A)/(B−A) [Math. 1]
A: average value of low control group B: average value of high control group
Values of 50% inhibition rate (IC50 values) of the test compound were calculated from the inhibition curve based on the inhibition rate of the test compounds in each concentration.

Assay [2] addresses T2, DDR1 phosphorylation in T-47D (ATCC, HTB-133) cells (Homo sapiens, UniProt Q08345).
T2 construct: host or cells: T-47D
The assay can be described thus: Measurement of DDR1 phosphorylation suppression rate by using T-47D cells (p-DDR1 ELISA). As to conditions: collagen Type I 10 μg/ml, p-DDR1 (panTyr) ELISA. It is filed as cell-based. How it is done:
Biological Example 2: Measurement of DDR1 Phosphorylation Suppression Rate by Using T-47D (ATCC, HTB-133) cells
T-47D cells should be in culture for at least 7 days before using in the assay.
Cell culture medium: RPMI 1640 (HyClone) containing 10% Heat-FBS (HyClone) was prepared.
Assay medium: RPMI 1640 containing 0.1% BSA (solarbio) was prepared.
Collagen Type I (rat tail) solution: Assay medium containing 200 μg/mL Collagen I, rat tail (Gibco) was prepared.
Cell lysis buffer: a solution containing IX cell lysis buffer (CST) and 1× protease and phosphatase inhibitor cocktail (Thermofisher) was prepared by using ddH2O.
• 1. Collect cells into tubes and centrifuge at 1200 rpm for 5 min, at room temperature. Re-suspend the cells in cell culture medium pre-warmed to room temperature. • 2. Count cells and suspend at a density of 2×10^5/ml of cell culture medium. Plate the cells at 100 μL per well (Corning 3599 96-well plate, 2×10^4 cells per well final), mixing the cells well between each draw of the pipettor. • 3. Put lid on cell plate and place into the incubator at 37° C., 5% CO2 • 4. Culture cell overnight
• 1. Remove the plate from the incubator • 2. Cell medium is replaced with the 90 μL Assay medium.
• 1. Compound plates are pre-titrated using DMSO (10-fold dilution for 6 points) • 2. Dilute test compound using assay medium; Transfer 1 μL compound to other 96 well plate and then add 49 μL assay medium to each well (50 fold dilution). • 3. Add 5 μL the diluted test compound solution to the appropriate wells by pipettor. Compound final concentration is start from […] and DMSO final concentration is 0.1 • 4. Tap the plates gently to mix in compound. Reseal the plate with a lid and place in the incubator again, for 24 h.
• 1. Diluted collagen Type I in assay medium to the 200 μg/ml concentration • 2. Using the pipettor adds 5 μL of 200 μg/mL collagen Type I solution to the cell plate (compound well and High control well, collagen final conc. is 10 μg/ml). Add assay medium buffer to the control wells (low control well) • 3. Reseal the plate with a lid and place in the incubator. Incubate 24 h for collagen type I
• 1. After incubation, add 100 µL per well Cell lysis buffer. • 2. Incubate 30 min on ice, then freezing to −80° C. to get the fully cell lysates. • 3. Transfer cell lysates to new plate • 4. Centrifuge for 30 min (×4000 rpm) at 4° C. Then transfer the supernatant to a new plate.
p-DDR1 (panTyr) ELISA kit (CST) was used in the study. The measurement was carried out according to the attached instruction.
as §1
% inhibition=100−100*(assay value of test compound−A)/(B−A) [Math. 2]
A: average value of low control group B: average value of high control group Values of 50% inhibition rate (IC50 values) of the test compound were calculated from the inhibition curve based on the inhibition rate of the test compounds in each concentration.

T2 sequence (Q08345 19-913): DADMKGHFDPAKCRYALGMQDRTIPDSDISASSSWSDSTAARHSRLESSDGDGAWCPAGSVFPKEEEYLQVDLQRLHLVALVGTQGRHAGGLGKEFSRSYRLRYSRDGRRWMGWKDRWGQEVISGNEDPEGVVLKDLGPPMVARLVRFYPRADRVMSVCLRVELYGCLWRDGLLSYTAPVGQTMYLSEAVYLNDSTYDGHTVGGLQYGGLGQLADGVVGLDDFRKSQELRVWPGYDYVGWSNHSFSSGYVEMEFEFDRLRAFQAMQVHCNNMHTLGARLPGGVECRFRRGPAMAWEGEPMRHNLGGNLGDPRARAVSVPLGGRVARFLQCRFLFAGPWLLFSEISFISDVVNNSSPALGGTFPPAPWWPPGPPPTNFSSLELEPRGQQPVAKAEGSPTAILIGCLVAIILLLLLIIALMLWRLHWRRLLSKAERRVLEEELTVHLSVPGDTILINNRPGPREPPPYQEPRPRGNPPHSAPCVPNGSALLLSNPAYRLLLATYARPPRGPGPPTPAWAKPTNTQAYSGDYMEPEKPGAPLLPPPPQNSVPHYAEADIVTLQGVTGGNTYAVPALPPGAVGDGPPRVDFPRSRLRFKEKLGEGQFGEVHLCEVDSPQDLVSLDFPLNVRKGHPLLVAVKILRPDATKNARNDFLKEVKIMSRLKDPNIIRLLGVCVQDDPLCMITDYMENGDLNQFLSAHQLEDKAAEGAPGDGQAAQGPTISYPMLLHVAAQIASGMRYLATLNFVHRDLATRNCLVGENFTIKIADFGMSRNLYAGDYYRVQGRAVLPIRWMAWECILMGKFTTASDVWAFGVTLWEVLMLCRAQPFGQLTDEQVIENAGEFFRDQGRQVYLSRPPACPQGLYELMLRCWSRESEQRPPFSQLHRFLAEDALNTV
T1 sequence (Q08345 19-913): as above

For the molecule `O=C1CN(c2cc(F)cc(C(F)(F)F)c2)C(=O)N1[C@H]1CC[C@H](Oc2cnc3ccsc3c2)CC1` [Example 2(125), 1-[3-fluoro-5-(trifluoromethyl)phenyl]-3-[trans-4-(thieno[3,2-b]pvridin-6-yloxy)cyclohexyl]-2,4-imidazolidinedione], the IC50 worked out at 20 nM in assay [1] and 5 nM in assay [2].

Take `Cn1cc(-c2cc(O[C@H]3C[C@H](N4C(=O)CN(c5cc(CN6CCNCC6)cc(C(F)(F)F)c5)C4=O)C3)ccn2)cn1` [Example 2(126), 3-(trans-3-{[2-(1-methyl-1H-pyrazol-4-yl)-4-pyridinyl]oxy}cyclobutyl)-1-[3-(1-piperazinylmethyl)-5-(trifluoromethyl)phenyl]-2,4-imidazolidinedione]: the results for the IC50 in assay [1] and in assay [2] were 10 nM and 6 nM, respectively.

Consider `CC(C)c1cc(N2C(=O)CN(c3cncc(C(F)(F)F)c3)C2=O)ccc1Oc1ccnc2[nH]c(=O)[nH]c12` [Example 2(149), 3-{3-isopropyl-4-[(2-oxo-2,3-dihydro-1H-imidazo[4,5-b]pyridin-7-yl)oxy]phenyl}-1-[5-(trifluoromethyl)-3-pyridinyl]-2,4-imidazolidinedione], for which the IC50 in assay [1] and in assay [2] was 3 nM in each case.

`Cc1cc(N2C(=O)CN(c3cncc(C(F)(F)F)c3)C2=O)ccc1Oc1ccnc2ccnn12` [Example 3(47), 3-[3-methyl-4-(pyrazolo[1,5-a]pyrimidin-7-yloxy)phenyl]-1-[5-(trifluoromethyl)-3-pyridinyl]-2,4-imidazolidinedione]: the IC50 in assay [1] and in assay [2] was 1 nM throughout.

Take `O=C1CN(c2cncc(C(F)(F)F)c2)C(=O)N1C1CC2CC1CC2Oc1ncnc2[nH]ccc12` (stereo not shown) [Example 3(63), 3-[5-(7H-pyrrolo[2,3-d]pyrimidin-4-yloxy)bicyclo[2.2.1]hept-2-yl]-1-[5-(trifluoromethyl)-3-pyridinyl]-2,4-imidazolidinedione]: the figures for the IC50 in assay [1] and in assay [2] were 7 nM and 1 nM, respectively.

Take `O=C1CN(c2cncc(C(F)(F)F)c2)C(=O)N1C1CC2(CC(Oc3ncnc4[nH]ccc34)C2)C1` (stereo not shown) [Example 3(66), 3-[6-(7H-pyrrolo[2,3-d]pyrimidin-4-yloxy)spiro[3.3]hept-2-yl]-1-[5-(trifluoromethyl)-3-pyridinyl]-2,4-imidazolidinedione]: the IC50 in assay [1] and in assay [2] was 1 nM in each case.

With `CC(C)c1cc(N2C(=O)CN(c3ccc(CN4CCN(C)CC4)c(C(F)(F)F)c3)C2=O)ccc1Oc1ccnc(N)n1` [Example 3(78), 3-{4-[(2-amino-4-pyrimidinyl)oxy]-3-isopropylphenyl}-1-{4-[(4-methyl-1-piperazinyl)methyl]-3-(trifluoromethyl)phenyl}-2,4-imidazolidinedione], the IC50 was 4 nM in assay [1] and 2 nM in assay [2].

For the molecule `CCc1cc(N2C(=O)CN(c3cc(C(C)(C)C(F)(F)F)on3)C2=O)ccc1Oc1ccnc(N)n1` [Example 3(101), 3-{4-[(2-amino-4-pyrimidinyl)oxy]-3-ethylphenyl}-1-[5-(1,1,1-trifluoro-2-methyl-2-propanyl)-1,2-oxazol-3-yl]-2,4-imidazolidinedione], the IC50 amounted to 3 nM in assay [1] and 2 nM in assay [2].

`Cc1cc(Oc2ccnc(N)n2)ccc1N1C(=O)CN(c2cc(F)cc(C(F)(F)F)c2)C1=O` [Example 3(111), 3-{4-[(2-amino-4-pyrimidinyl)oxy]-2-methylphenyl}-1-[3-fluoro-5-(trifluoromethyl)phenyl]-2,4-imidazolidinedione]: the IC50 in assay [1] and in assay [2] was 1 nM in each case.

For `CC#Cc1cc(Oc2ccnc(N)n2)ccc1N1C(=O)CN(c2cncc(C(F)(F)F)c2)C1=O` [Example 3(120), 3-{4-[(2-amino-4-pyrimidinyl)oxy]-2-(1-propyn-1-yl)phenyl}-1-[5-(trifluoromethyl)-3-pyridinyl]-2,4-imidazolidinedione], the IC50 in assay [1] was 7 nM; in assay [2], 5 nM.

As for `Nc1nccc(Oc2ccc(N3C(=O)CN(c4cncc(C(F)(F)F)c4)C3=O)c(-c3ccccc3)c2)n1` [Example 3(122), 3-{5-[(2-amino-4-pyrimidinyl)oxy]-2-biphenylyl}-1-[5-(trifluoromethyl)-3-pyridinyl]-2,4-imidazolidinedione], the IC50 in assay [1] came to 5 nM; in assay [2], 7 nM.

`CCc1cc(N2C(=O)CN(c3cncc(C(F)(F)F)c3)C2=O)ccc1Oc1ccnc2[nH]ccc12` [Example 3(176), 3-[3-ethyl-4-(1H-pyrrolo[2,3-b]pyridin-4-yloxy)phenyl]-1-[5-(trifluoromethyl)-3-pyridinyl]-2,4-imidazolidinedione]: the IC50 in assay [1] was 2 nM; in assay [2], 0.1 nM.

Consider `CCc1cc(N2CCN(c3cccc(C(F)(F)F)c3)C2=O)ccc1Oc1ccnc(N)n1` [Example 4(1), 1-{4-[(2-amino-4-pyrimidinyl)oxy]-3-ethylphenyl}-3-[3-(trifluoromethyl)phenyl]-2-imidazolidinone], for which the IC50 in assay [1] stood at 3 nM; in assay [2], 1 nM.

Take `COc1cc2nccc(Cc3ccc(N4C(=O)CN(c5cccc(C(F)(F)F)c5)C4=O)cc3)c2cc1OC` [Example 6(1), 3-{4-[(6,7-dimethoxy-4-quinolinyl)methyl]phenyl}-1-[3-(trifluoromethyl)phenyl]-2,4-imidazolidinedione]: the figures for the IC50 in assay [1] and in assay [2] were 5 nM and 2 nM, respectively.

As for `C=Cc1cc(N2C(=O)CN(c3cncc(C(F)(F)F)c3)C2=O)ccc1Nc1ncnc2cc(OC)cc(F)c12` [Example 7(6), 3-{4-[(5-fluoro-7-methoxy-4-quinazolinyl)amino]-3-vinylphenyl}-1-[5-(trifluoromethyl)-3-pyridinyl]-2,4-imidazolidinedione], the concentration for half-maximal inhibition (IC50) in assay [1] came out at 3 nM; in assay [2] it was 2 nM.

`COc1cc2nccc(N3CCc4cc(N5C(=O)CN(c6cncc(C(F)(F)F)c6)C5=O)ccc43)c2cc1OC` [Example 9(1), 3-[1-(6,7-dimethoxy-4-quinolinyl)-2,3-dihydro-1H-indol-5-yl]-1-[5-(trifluoromethyl)-3-pyridinyl]-2,4-imidazolidinedione]: the IC50 in assay [1] was found to be 10 nM; in assay [2], 20 nM.

Turning to `O=C1CN(c2cncc(C3(C(F)(F)F)CCO3)c2)C(=O)N1c1ccc(Oc2cnc3[nH]ncc3c2)cc1` (stereo not shown) [Example 13, 3-[4-(1H-pyrazolo[3,4-b]pyridin-5-yloxy)phenyl]-1-{5-[2-(trifluoromethyl)-2-oxetanyl]-3-pyridinyl}-2,4-imidazolidinedione], the concentration for half-maximal inhibition (IC50) in assay [1] and in assay [2] was 3 nM in each case.
